The source of these data is patent US20230295201A1 (Gilead Sciences, Inc., priority 2020, published 2023).

What all share (format): cell-based
One assay concerns RSV A2. The experiment in a line: RSV NHBE EC50 (RSV A2 antiviral assay in normal human bronchial epithelial cells). The following applies: NHBE cells, RSV A2, 4 days, read-out: RSV NHBE EC50. On the procedure:
Normal human bronchial epithelial (NHBE) cells were purchased from Lonza (Walkersville, MD, Cat #CC-2540) and cultured in Bronchial Epithelial Growth Media (BEGM) (Lonza, Walkersville, MD, Cat #CC-3170). The cells were passaged 1-2 times per week to maintain <80% confluency. The NHBE cells were discarded after 6 passages in culture.
To conduct the RSV A2 antiviral assay, NHBE cells were plated in 96-well plates at a density of 7,500 cells per well in BEGM and allowed to attach overnight at 37° C. Following attachment, 100 μL of cell culture media was removed and 3-fold serially diluted compound was added using a Hewlett-Packard D300 Digital Dispenser. The final concentration of DMSO was normalized to 0.05%. Following compound addition, the NHBE cells were infected by the addition of 100 μL of RSV A2 at a titer of 1×10^4.5 tissue culture infectious doses/mL in BEGM and then incubated at 37° C. for 4 days. […] The mixtures were incubated for 10 minutes at 25° C., and the luminescence signal was quantified on an Envision luminescence plate reader.

The next assay relates to RSV strain A2. The experiment in a line: RSV HEp-2 EC50 (infectious cytopathic cell protection assay). The following applies: HEp-2 cells, RSV A2, 4 days, read-out: RSV HEp-2 EC50. The procedure:
Antiviral activity against RSV is determined using an infectious cytopathic cell protection assay in HEp-2 cells. In this assay, compounds inhibiting viral infection and/or replication produce a cytoprotective effect against the virus-induced cell killing that can be quantified using a cell viability reagent. The techniques used here are novel adaptations of methods described in published literature (Chapman et al., Antimicrob Agents Chemother. 2007, 51(9):3346-53.)
HEp-2 cells are obtained from ATCC (Manassas, VI) and maintained in MEM media supplemented with 10% fetal bovine serum and penicillin/streptomycin. Cells are passaged twice a week and kept at subconfluent stage. Commercial stock of RSV strain A2 (Advanced Biotechnologies, Columbia, MD) is titered before compound testing to determine the appropriate dilution of the virus stock that generates desirable cytopathic effect in HEp-2 cells.
For antiviral tests, HEp-2 cells are grown in large cell culture flasks to near confluency but not fully so. The compounds to be tested are prediluted in DMSO in 384-well compound dilution plates, either in an 8 or 40 sample per plate standardized dose response format. 3-fold serial dilution increments of each test compound are prepared in the plates and test samples are transferred via acoustic transfer apparatus (Echo, Labcyte) at 100 nL per well into cell culture assay 384-well plates. Each compound dilution is transferred in single or quadruplicate samples into dry assay plates, which are stored until assay is ready to go. The positive and negative controls are laid out in opposite on ends of the plate in vertical blocks (1 column).
Subsequently, an infectious mixture is prepared using an appropriate dilution of virus stock previously determined by titration with cells at a density of 50,000/ml and 20 µL/well is added to test plates w/compounds via automation (uFlow, Biotek). Each plate includes negative and positive controls (16 replicates each) to create 0% and 100% virus inhibition standards, respectively. Following the infection with RSV, testing plates are incubated for 4 days in a 37° C. cell culture incubator. After the incubation, a cell viability reagent, Cell TiterGlo (Promega, Madison, WI) is added to the assay plates, which are incubated briefly, and a luminescent readout is measured (Envision, Perkin Elmer) in all the assay plates. The RSV-induced cytopathic effect, percentage inhibition, is determined from the levels of remaining cell viability. […] Various potent anti-RSV tool compounds are used as positive controls for antiviral activity.
On the technique in general: Protection from cytopathic effect is a common read-out in antiviral testing.

For another assay, the system named is HRV16. The experiment in a line: HRV16 HELA EC50 (cytopathic effect in H1-HeLa cells). On the procedure: H1-HeLa cells, cultured in complete DMEM medium containing 10% heat-inactivated FBS and 1% Penicillin/Streptomycin, were seeded in 96 well plates at 3000 cells/well one day prior to compound dosing and infection. The antiviral activity of each compound was measured in triplicate. Compounds were added directly to the cell cultures in serial 3-fold dilutions using the HP300 digital dispenser (Hewlett Packard, Palo Alto, CA) immediately prior to infection. The plates were transferred to BSL-2 containment and the appropriate dilution of virus stock, previously determined by titration and prepared in cell culture media, was added to test plates containing cells and serially diluted compounds. Each plate included 6 wells of infected untreated cells and 6 wells of uninfected cells that served as 0% and 100% virus inhibition control, respectively. Following the infection, test plates were incubated for 96 h in a tissue culture incubator set to 33° C./5% CO2. Following incubation, the H1-HeLa cells were removed from incubation and allowed to equilibrate to 25° C. Cell viability was determined by removing 100 μL of culture medium and adding 100 μL of Cell-Titer Glo viability reagent. The mixtures were incubated on a shaker for 10 minutes at 25° C., and the luminescence signal was quantified on an Envision luminescence plate reader.

The subject of the next assay is DENV2 replicon. Kind of assay: DENV-2 Huh-7 Rep EC50 (replicon luminescence). The following applies: Huh-7 replicon cells, 48 hours, read-out: DENV-2 Huh-7 Rep EC50. On the procedure: In 384 well plates (Greiner, Cat #781091), compounds were acoustically transferred at 200 nl per well in a 8 compound (4 replicates) or 40 compound dose response format (3 replicates). For all plates tested, Balapiravir, GS-5734 and NITD008 were included as positive inhibition controls alongside 0% inhibition, DMSO-only negative control wells. Following compound addition, Huh-7 cells containing the DENV2 replicon construct were harvested following standard cell culture procedures and were adjusted to a concentration of 1.25E5 cells/mL in cell culture media composed of cDMEM without genticin. 40 μL of the cell stock was then added to each well for a final cell density of 5,000 cells/well. Cell and compound mixtures were incubated at 37° C./5% CO2 for 48 hours. Prior to harvesting cells, EnduRen Live Cell Substrate (Promega, Cat #E6481) was prepared by suspending 3.4 mg into 100 uL of DMSO to generate a 60 mM stock solution. The stock solution was then diluted 1:200 in pre-warmed cDMEM and 10 uL of this diluted solution was added to each well of the 384 well plates. Plates were then centrifuged at 500 rpm briefly and were placed on a plate shaker for 2 min. Following mixing, plates were incubated at […] for 1.5 hours prior to measuring luminescence on an Envision luminometer.
(Replicon systems follow genome replication, usually without infectious particles.)

Setting [1] is: human respiratory syncytial virus, NHBE, 96 h.
[2] abbreviates: human respiratory syncytial virus, HEp-2, 96 h.
Where [3] appears, read: 96 h, H1-HeLa cells, 33° C., read-out: HRV16 HELA EC50.
The mark [4] stands for this setting: Dengue virus, DENV2, Huh-7, 48 h.
Setting [5] is: H1-HeLa cells, 96 h, 33° C.; read-out: HRV16 HELA EC50.
The mark [6] stands for this setting: human respiratory syncytial virus, 96 h.

Like-named read-outs stand apart in the source and are kept apart here.

In the case of `C[C@H](NP(=O)(OC[C@@]1(C#N)O[C@@H](c2ccc3c(N)ncnn23)[C@H](O)[C@@H]1O)Oc1ccccc1)C(=O)O[C@H]1CC[C@H](C)CC1` (mixture of isomers) [Example 142, (2S)-(1r,4S)-4-methylcyclohexyl 2-(((((2R,3S,4R,5S)-5-(4-aminopyrrolo[2,1-f][1,2,4]triazin-7-yl)-2-cyano-3,4-dihydroxytetrahydrofuran-2-yl)methoxy)(phenoxy)phosphoryl)amino)propanoate], the EC50 in the assay on RSV A2 (setting [1]) stood at 61 nM; in the assay on RSV strain A2 (setting [2]), 251 nM; in the assay with HRV16 (setting [3]), 164 nM; in the assay with DENV2 replicon (setting [4]), 12200 nM.

On to `C[C@H](NP(=O)(OC[C@@]1(C#N)O[C@@H](c2ccc3c(N)ncnn23)[C@H](O)[C@@H]1O)Oc1ccccc1)C(=O)OC1CCC(F)(F)CC1` (mixture of isomers) [Example 174, 4,4-difluorocyclohexyl ((((2R,3S,4R,5S)-5-(4-aminopyrrolo[2,1-f][1,2,4]triazin-7-yl)-2-cyano-3,4-dihydroxytetrahydrofuran-2-yl)methoxy)(phenoxy)phosphoryl)-L-alaninate], for which the EC50 in the assay on RSV A2 (setting [1]) worked out at 1390 nM; in the assay on RSV strain A2 (setting [2]), 257 nM; in the assay with HRV16 (setting [3]), 748 nM; with DENV2 replicon (setting [4]) it was 33800 nM.

For `CC[C@H](N[P@@](=O)(OC[C@@]1(C#N)O[C@@H](c2ccc3c(N)ncnn23)[C@H](O)[C@@H]1O)Oc1ccccc1)C(=O)OCC(C)(C)C` [Example 158], the EC50 in the assay on RSV A2 was 1270 nM; in the assay with RSV strain A2, 969 nM; with HRV16 (setting [5]), 13000 nM; with DENV2 replicon, greater than 50000 nM.

Turning to `COC(=O)[C@H](C)NP(=O)(OC[C@@]1(C#N)O[C@@H](c2ccc3c(N)ncnn23)[C@H](O)[C@@H]1O)Oc1ccc(C[C@H](N)C(=O)OC)cc1` (single isomer, unassigned) [Example 62], the EC50 in the assay on RSV A2 was greater than 5000 nM; in the assay with RSV strain A2, 4520 nM; in the assay with HRV16 (setting [5]), 8570 nM.

As for `CC(C)(CO)C(=O)OCCNP(=O)(OC[C@@]1(C#N)O[C@@H](c2ccc3c(N)ncnn23)[C@H](O)[C@@H]1O)Oc1ccccc1` (stereo partly drawn) [Example 126, 2-(((((2R,3S,4R,5S)-5-(4-aminopyrrolo[2,1-f][1,2,4]triazin-7-yl)-2-cyano-3,4-dihydroxytetrahydrofuran-2-yl)methoxy)(phenoxy)phosphoryl)amino)ethyl 3-hydroxy-2,2-dimethylpropanoate], the EC50 was 1790 nM in the assay with RSV A2 (setting [1]), 6560 nM in the assay with RSV strain A2 (setting [2]), 27900 nM with HRV16 (setting [3]) and greater than 50000 nM in the assay on DENV2 replicon (setting [4]).

Consider `C[C@H](N[P@@](=O)(OC[C@@]1(C#N)O[C@@H](c2ccc3c(N)ncnn23)[C@H](O)[C@@H]1O)Oc1ccccc1)C(=O)OC1CCCCC1` (single isomer, unassigned) [Example 5], for which the concentration for a half-maximal effect (EC50) turned out to be 630 nM in the assay with RSV A2 (setting [1]), 2740 nM in the assay on RSV strain A2 (setting [2]) and 654 nM in the assay on HRV16 (setting [3]).

As for `C[C@H](NP(=O)(OC[C@@]1(C#N)O[C@@H](c2ccc3c(N)ncnn23)[C@H](O)[C@@H]1O)Oc1ccccc1)C(=O)OC1COC1` (stereo partly drawn) [Example 44, oxetan-3-yl ((((2R,3S,4R,5S)-5-(4-aminopyrrolo[2,1-f][1,2,4]triazin-7-yl)-2-cyano-3,4-dihydroxytetrahydrofuran-2-yl)methoxy)(phenoxy)phosphoryl)-L-alaninate], the EC50 is 1800 nM in the assay on RSV A2 (setting [1]), 998 nM in the assay on RSV strain A2 (setting [2]) and 4260 nM with HRV16 (setting [3]).

With `CCCCCCCCCCCCCCCC(=O)OCC(COP(=O)(O)OC[C@@]1(C#N)O[C@@H](c2ccc3c(N)ncnn23)[C@H](O)[C@@H]1O)OC(=O)CCCCCCCCCCCCCCC` (stereo partly drawn) [Example 152, 3-(((((2R,3S,4R,5S)-5-(4-aminopyrrolo[2,1-f][1,2,4]triazin-7-yl)-2-cyano-3,4-dihydroxytetrahydrofuran-2-yl)methoxy)(hydroxy)phosphoryl)oxy)propane-1,2-diyl dipalmitate], the concentration giving a half-maximal response (EC50) in the assay on RSV A2 (setting [6]) is 1780 nM; with RSV strain A2 (setting [6]), greater than 5000 nM; with HRV16 (setting [5]) it was greater than 5000 nM.

On to `CSCCOP(=O)(N[C@@H](C)C(=O)OC(C)C)OC[C@@]1(C#N)O[C@@H](c2ccc3c(N)ncnn23)[C@H](O)[C@@H]1O` (stereo partly drawn) [Example 40, isopropyl ((((2R,3S,4R,5S)-5-(4-aminopyrrolo[2,1-f][1,2,4]triazin-7-yl)-2-cyano-3,4-dihydroxytetrahydrofuran-2-yl)methoxy)(2-(methylthio)ethoxy)phosphoryl)-L-alaninate], for which the values for the EC50 in the assay with RSV A2 (setting [6]), in the assay with RSV strain A2 (setting [6]) and with HRV16 (setting [5]) were no less than 5000 nM, 21500 nM and greater than 50000 nM, respectively.

On to `C[C@H](NP(=O)(OC[C@@]1(C#N)O[C@@H](c2ccc3c(N)ncnn23)[C@H](O)[C@@H]1O)Oc1ccccc1)C(=O)O[C@@H]1CCN(C)C1` (mixture of isomers) [Example 61, (R)-1-methylpyrrolidin-3-yl ((((2R,3S,4R,5S)-5-(4-aminopyrrolo[2,1-f][1,2,4]triazin-7-yl)-2-cyano-3,4-dihydroxytetrahydrofuran-2-yl)methoxy)(phenoxy)phosphoryl)-L-alaninate], for which the values for the EC50 in the assay on RSV A2 (setting [1]), with RSV strain A2 (setting [2]) and with HRV16 (setting [3]) were no less than 5000 nM, 2290 nM and 23200 nM, respectively.

In general, EC50 refers to the concentration at which the effect is half-maximal.
